Experimental findings from a melting point compilation (Tetko et al.; mined from patent text by program, amines drawn as free bases though some values may be those of a salt) are described below.

A word on the melting point: it is the temperature of the solid-liquid transition. For `CCCCc1oc2ccccc2c1-c1ncc(-c2ccc3cc(OCC(=O)OC)ccc3c2)o1`, the melting point was in the range of 149 to 151 °C.
`c1c(N2CCCC2)nc(NC23CC4CC(CC(C4)C2)C3)nc1N1CCNCC1` registered a melting point of 160 to 164 °C.
Compound `Cc1nc2nsc(N)c2s1` came in with a melting point of 164 to 167 °C.
Regarding `O=C(Nc1ccc(Oc2ccnc(NC3CCCCC3)n2)c2ccccc12)c1cc(F)cc(N2CCOCC2)c1`, the melting point lay within 135 to 136 °C.
With `CCCn1nc2c(N)nc3ccccc3c2c1CCCCS(C)(=O)=O` the figure was 155 to 157 °C.
Compound `CCCCCCCCCCOCC(COCCCCCCCCCC)(CC(=O)O)CC(=O)O` gave a melting point of 68 to 71 °C.
In the case of `NC1=NCC(NC=O)(N[C@@H]2CC=C(CO)C2)C(Cl)=N1` (some centres not stated), the melting point lay within 148 to 150 °C.
In turn, `COC(=O)NCCNC(=O)c1cc(C)c(C(c2cc(F)ccc2F)S(=O)(=O)c2ccc(F)cc2)cn1` (configuration not stated) had a melting point of 167 to 169 °C.
With `COc1cccc(OC)c1C=CC(=O)c1c(OC)cccc1OC` the figure was 179 to 180 °C.
`COC(=O)c1ccc(CNC(=O)c2[nH]c(-c3ccoc3)cc2-c2ccc(O)cc2)cc1` showed a melting point of 223 to 224 °C.
For `CC(=O)N(c1ccccc1)c1[nH]c2ccccc2c1Sc1ccccc1`, the melting point fell in the range of 66 to 68 °C.
Compound `CNC(=O)c1cc(C(=O)OC)cc(C(=O)NC)n1` gave a melting point of 202 to 203 °C.
With `COc1ccc(CCCC(CCc2ccc(OC)cc2)C(=O)O)cc1` (configuration not stated) the figure was 91 to 94 °C; with `Cn1nc(C#N)c(Nc2ccc(Br)cc2[N+](=O)[O-])n1`, 162 to 164 °C.
With `O=C1N(c2cc(Cl)nc(Cl)c2)C(=O)C2(Cc3ccc(O)cc3)CCCN12` (configuration not stated) the figure was 165 °C; with `CCCCCCCCCCCc1cc2ccc(C(=O)O)cc2[nH]1`, 156 to 158 °C; with `COc1ccc(S(=O)(=O)C2(C(=O)NO)CCN(CC=C(C)C)CC2)cc1`, 142 to 145 °C.
Consider `CC(C)(C)C(=O)Nc1ccc(F)cc1`, for which the melting point lay within 124 to 125 °C.
Under `N#Cc1cc(O)c2[nH]c(=O)oc2c1` stands greater than 220 °C.
With `O=C1C2CC3CC1CC(OCc1ccc(-c4nc5ccccc5o4)cc1)(C3)C2` the figure was 159 to 160 °C; with `NC1=NN(c2ccc3ccccc3c2)CC1`, 190 to 191 °C.
With `CC1(C)CC(O)(C(F)(F)F)C(Nc2cccc3[nH]c(=O)ccc23)c2cc(O)c(Cl)cc21` (configuration not stated) the figure was 158 °C; with `COc1ccc2[nH]c3c(c2c1)CC(=O)Nc1cccnc1-3`, greater than 330 °C; with `COc1cccc2c1Oc1ccc(C(=O)OC(C)C)cc1NC2`, 110 °C.
The compound `Cc1nn(-c2ccccc2)c(Nc2ccccc2)c1CC(=O)O` yielded a melting point of 111 to 113 °C.
`CC(C(=O)OCCO)n1c(-c2ccc(Cl)cc2)nc2cccnc21` (configuration not stated): the melting point is 112 to 114 °C.
Under `COc1cc2c(c(Cl)c1Cl)C(=O)c1ccccc1-2` stands 268 to 270 °C; under `Oc1ccc(CCc2cc(O)c(O)c(O)c2)cc1`, 180 to 188 °C.
With `O=C(NCCCCCCCCc1ccccc1)c1cc(-c2cccc(C(F)(F)F)c2)c(OCCO)c(-c2cccc(C(F)(F)F)c2)c1` the figure was 143 to 145 °C; with `CC(C)(C)OC(=O)[C@@H](Cc1ccccc1)NC(=O)C1CN(c2ccc(C(N)=S)cc2)C(=O)O1` (some centres not stated), 167 to 169 °C.
In turn, `CC1(C)CC(=O)C2=C(C1)NC1=C(C(=O)CC(C)(C)C1)C2c1ccc(Cl)cc1Cl` had a melting point greater than 300 °C.
As to `CS(=O)(=O)c1cccc(NC(=O)c2cnn3c(C4CC4)cc(-c4ccc(Cl)cc4)nc23)c1`, the melting point was in the range of 235 to 238 °C.
With `CC(C)Oc1cccc(Nc2cc(-c3c[nH]nc3-c3ccccn3)ccn2)c1` the figure was 218 °C; with `CC(C)(C)OC(=O)CN1C(=O)[C@@H](NC(=O)OCc2ccccc2)[C@H]1CCc1ccco1`, 82 to 84 °C.
Under `CN(C)c1noc(-c2cc(C(C)(C)C)c(O)c(C(C)(C)C)c2)n1` stands 135 to 138 °C; under `CCc1nc2c(C)cc(C)nc2n1Cc1ccc2c(c1)CCc1ccccc1N2CC(=O)O`, 114 to 115 °C.
Under `CCCCCn1cc(C(=O)O)c(=O)c(I)c1C` stands 154 °C; under `NC(=O)c1ncn(CCCc2ccc(OCc3coc(/C=C/c4ccccc4)n3)cc2)c1C(N)=O`, 194 to 195 °C.
For `COc1ccccc1CN[C@@H]1[C@@H]2CCN([C@H](CCc3ccccc3)C2)[C@@H]1C(c1ccccc1)c1ccccc1` (relative stereo), the melting point lay within 107 to 108 °C.
Under `Cc1cc(-n2cncn2)c2cccc(OCc3c(Cl)ccc(S(=O)(=O)N4CCC[C@H]4C(=O)NCC4CCN(CCOCCO)CC4)c3Cl)c2n1` stands 82 °C; under `CCC(=O)OC(C#N)C(C#N)c1ccc(OC)c(OC)c1` (configuration not stated), 92 to 94 °C.
With `CN1CCC(c2c[nH]c3ccc(-n4ccnc4)cc23)CC1` the figure was 217 °C; with `COc1nc(N)nc(OC)c1C1=NCCN1`, 230 °C; with `CCCC(c1ccc(C(=O)OC)cc1OCc1ccc(Cl)cc1Cl)n1ccnc1` (configuration not stated), 104 °C.
On to `O=C(C#Cc1ccc(-c2ccc(Cl)cc2)cc1)Nc1ccc(CNCC2CCCCC2)cc1`, for which the melting point lay within 205 to 210 °C.
Under `OCc1cnc2sc3c(n12)CCCCC3` stands 145 to 146 °C; under `COc1ccc2c(C3=C(c4cn(C)c5cc(OC)ccc45)C(=O)NC3=O)cn(C)c2c1`, 257 to 258 °C.
Regarding `CN(CC(=O)N1c2ccccc2N(Cc2ccccc2)C(=O)[C@H]2CCC[C@H]21)Cc1ccccc1` (relative stereo), the melting point lay in the range of 75 to 78 °C.
The compound `CCC1Cc2cc(OCC(=O)O)c(C)c(C)c2C1=O` (configuration not stated) showed a melting point of 206 °C.
Regarding `Cn1ncnc1COc1nn2c(-c3cccc(F)c3)nncc2c1-c1ccccc1F`, the melting point lay in the range of 169 to 170 °C.
The compound `O=C1c2cccc3c([N+](=O)[O-])ccc(c23)C(=O)N1O` gave a melting point of 255 to 260 °C.
With `Cc1nc(C)n(-c2cc([C@@H]3C[C@H]3c3nc4ccccc4n3C)nc(C(F)(F)F)n2)n1` (relative stereo), the melting point fell in the range of 151 to 153 °C.
In the case of `O=C(OCc1ccccc1)[C@@H]1CCCN1C(=O)CNC1Cc2ccccc2C1`, the melting point is 96 to 98 °C.
Under `COCC1CN(c2cc3c(cc2F)c(=O)c(C(=O)O)cn3C2CC2)CCN1` (configuration not stated) stands 215 to 216 °C; under `Cc1cc(NC(=O)C2=C(O)c3ccc4ccccc4c3S(=O)(=O)N2C)sn1`, 268 °C.
With `Cc1ccc2c(c1)c(Cc1nc3c(F)c(F)cc(F)c3s1)cn2CC(=O)O` the figure was 131 to 133 °C; with `Cc1ncc(C(=O)O)nc1C`, 187 °C; with `Cc1oc(-c2ccccc2)nc1CCOc1ccc(I)cn1`, 105 to 106 °C.
With `CS(=O)(=O)N1CN(C(=O)c2c(F)cccc2F)C(=O)N(c2ccc(Cl)cc2)C1` the figure was 178 °C; with `COc1cc2c(cc1C(=O)Cl)nnn2C(C)=O`, 170 °C; with `CON=C(Cn1c(=O)ccc2ccccc21)c1ccc(C)cc1`, 129 to 132 °C.
With `Fc1ccc(-c2ccc3[nH]ccc3c2)cc1`, the melting point lay in the range of 71 to 74 °C.
